Where two headings read alike, the source gives them in different places.
Key:
[1] = molecular target: T1, full length N-terminally FLAG-tagged PARP1 (Homo sapiens, UniProt P09874); test: PARP1 probe displacement HTRF assay; conditions: for Selectivity: PARP1 over PARP2, ratio Kd (PARP2)/Kd (PARP1); for Kd: binned Kd
PARP1 = molecular target: T2, PARP1 (Homo sapiens, UniProt P09874); test: NanoBRET cellular target occupancy assay, PARP1; format: cell-based; conditions: for Kd: HEK293 cells transiently transfected with PARP1-NanoLuc fusion, tracer 11 nM, 2 hours at 37° C., Kd by Cheng-Prussoff; for Selectivity: NanoBRET, PARP1 over PARP2, Kd (PARP2)/Kd (PARP1)
T2 construct: host or cells: HEK293

PARP2 = molecular target: T3, PARP2 (Homo sapiens, UniProt Q9UGN5); test: NanoBRET cellular target occupancy assay, PARP2; format: cell-based; conditions: HEK293 cells transiently transfected with PARP2-NanoLuc fusion; tracer 2 nM; 2 hours at 37° C.; Kd by Cheng-Prussoff
T3 construct: host or cells: HEK293
Text: NanoBRET Cellular Target Occupancy Assay

[2] = molecular target: T4, N-terminally FLAG-tagged PARP2 (amino acids 1-583) (Homo sapiens, UniProt Q9UGN5); test: PARP2 probe displacement HTRF assay; format: binding; conditions: binned Kd
T4 construct: N-terminally FLAG-tagged PARP2 (amino acids 1-583)
Protocol: Data analysis was performed identical as for PARP1.

[3] = molecular target: T1, full length N-terminally FLAG-tagged PARP1; test: PARP1 biochemical DELFIA assay (auto-PARylation); design: recombinant full length human N-terminally FLAG-tagged PARP1
[4] = read-out: PARP1 HTRF, probe displacement HTRF
[5] = binned IC50, biochemical auto-PARylation assay
[6] = read-out: PARP1 HTRF, PARP1 probe displacement HTRF
[7] = binned IC50, PARP1 biochemical DELFIA assay

T1 sequence (P09874 whole entry, the tested form may be a part): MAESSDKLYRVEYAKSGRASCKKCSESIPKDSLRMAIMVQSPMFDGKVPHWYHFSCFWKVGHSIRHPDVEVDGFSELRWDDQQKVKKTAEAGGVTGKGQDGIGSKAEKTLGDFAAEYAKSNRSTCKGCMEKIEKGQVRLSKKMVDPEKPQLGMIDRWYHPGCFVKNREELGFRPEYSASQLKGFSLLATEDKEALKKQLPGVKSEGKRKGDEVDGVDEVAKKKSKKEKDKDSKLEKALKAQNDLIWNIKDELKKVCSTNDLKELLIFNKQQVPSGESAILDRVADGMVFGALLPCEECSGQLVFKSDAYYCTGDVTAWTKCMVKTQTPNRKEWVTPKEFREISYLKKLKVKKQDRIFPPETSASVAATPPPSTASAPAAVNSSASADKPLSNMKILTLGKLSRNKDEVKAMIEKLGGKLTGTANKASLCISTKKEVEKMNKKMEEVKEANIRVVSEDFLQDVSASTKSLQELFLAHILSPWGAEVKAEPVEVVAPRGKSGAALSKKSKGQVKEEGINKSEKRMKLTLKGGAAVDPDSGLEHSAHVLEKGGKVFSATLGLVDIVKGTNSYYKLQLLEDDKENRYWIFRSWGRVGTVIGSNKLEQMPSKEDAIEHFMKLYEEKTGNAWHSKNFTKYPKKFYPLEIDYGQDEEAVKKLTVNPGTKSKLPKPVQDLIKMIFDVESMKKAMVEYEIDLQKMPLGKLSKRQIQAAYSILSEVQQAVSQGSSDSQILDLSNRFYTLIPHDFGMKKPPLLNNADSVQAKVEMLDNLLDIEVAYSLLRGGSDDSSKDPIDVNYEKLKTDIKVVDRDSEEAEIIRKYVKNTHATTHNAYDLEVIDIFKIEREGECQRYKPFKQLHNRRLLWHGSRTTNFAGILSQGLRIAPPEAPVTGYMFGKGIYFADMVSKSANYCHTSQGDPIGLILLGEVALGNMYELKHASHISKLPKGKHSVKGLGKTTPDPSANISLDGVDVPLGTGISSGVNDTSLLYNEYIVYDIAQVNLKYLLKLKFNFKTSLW
T2 sequence (P09874 whole entry, the tested form may be a part): as above
T3 sequence (Q9UGN5 whole entry, the tested form may be a part): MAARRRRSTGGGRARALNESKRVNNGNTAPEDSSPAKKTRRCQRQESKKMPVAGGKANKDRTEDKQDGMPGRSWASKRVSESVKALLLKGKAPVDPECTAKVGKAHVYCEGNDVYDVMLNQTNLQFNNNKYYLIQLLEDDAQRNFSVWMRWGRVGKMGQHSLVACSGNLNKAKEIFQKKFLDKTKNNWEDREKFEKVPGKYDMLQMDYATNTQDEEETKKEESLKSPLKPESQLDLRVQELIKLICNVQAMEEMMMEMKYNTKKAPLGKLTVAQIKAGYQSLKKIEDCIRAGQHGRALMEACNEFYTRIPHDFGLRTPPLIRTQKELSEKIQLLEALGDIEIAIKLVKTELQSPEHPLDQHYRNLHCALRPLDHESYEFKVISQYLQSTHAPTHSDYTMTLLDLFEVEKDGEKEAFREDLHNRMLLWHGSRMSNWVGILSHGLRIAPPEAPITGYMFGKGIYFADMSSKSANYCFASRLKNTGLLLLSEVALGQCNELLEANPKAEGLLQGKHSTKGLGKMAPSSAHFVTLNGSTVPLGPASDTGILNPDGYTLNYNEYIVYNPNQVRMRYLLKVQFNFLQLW
T4 sequence (Q9UGN5 whole entry, the tested form may be a part): as above

| Compound | Kd [1, 4] [nM] | Kd (PARP1) [nM] | Kd (PARP2) [nM] | Kd ([2]; probe displacement HTRF) [nM] | IC50 [3, 5] [nM] | Kd [1, 6] [nM] | Kd ([2]; PARP2 probe displacement HTRF) [nM] | IC50 [3, 7] [nM] | Kd ([1]; PARP1 HTRF, PARP1 probe displacement HTRF) [nM] | Selectivity ([1]; probe displacement HTRF) | Selectivity (PARP1) |
| --- | --- | --- | --- | --- | --- | --- | --- | --- | --- | --- | --- |
| CNC(=O)c1ccc(N2CCC(N3CCC(c4nc5ccccc5c(=O)[nH]4)C3)CC2)cn1 (single isomer, unassigned) [Compound 10b, N-methyl-5-(4-(3-(4-oxo-3,4-dihydroquinazolin-2-yl)pyrrolidin-1-yl)piperidin-1-yl)picolinamide] |  | < 10 | 1000 to 10000 |  |  | < 10 | 100 to 1000 | < 10 |  | +++ (+++ indicate a value of at least 100) | +++ (+++ indicate a value of at least 100) |
| CNC(=O)c1ccc(N2CCC(N3CCC(c4nc5ccc(F)cc5c(=O)[nH]4)C3)CC2)cn1 (single isomer, unassigned) [Compound 64b] |  | < 10 | 100 to 1000 |  |  | < 10 | 100 to 1000 | < 10 |  | +++ (+++ indicate a value of at least 100) | +++ (+++ indicate a value of at least 100) |
| CNC(=O)c1ccc(N2CCC(N3CCC(c4nc5ccc(Cl)cc5c(=O)[nH]4)C3)CC2)cn1 (single isomer, unassigned) [Compound 68a] |  | < 10 | 1000 to 10000 |  |  | < 10 | 100 to 1000 | < 10 |  | +++ (+++ indicate a value of at least 100) | +++ (+++ indicate a value of at least 100) |
| CCc1ccc(C2CCN(C3CCN(c4ccc(C(=O)NC)nc4)CC3)C2)[nH]c1=O (single isomer, unassigned) [Compound 72b] |  | < 10 | 1000 to 10000 |  |  | < 10 | 100 to 1000 | < 10 |  | +++ (+++ indicate a value of at least 100) | +++ (+++ indicate a value of at least 100) |
| CNC(=O)c1ccc(N2CCC(N3CCC(c4nc5cccc(C(F)(F)F)c5c(=O)[nH]4)C3)CC2)cn1 (single isomer, unassigned) [Compound 86b] |  | < 10 | 10 to 100 |  |  | < 10 | < 10 | < 10 |  | + (+ indicates a value of 10 to less than 50) | + (+ indicates a value of 10 to less than 50) |
| CNC(=O)c1ccc(N2CCC(N3CCC(c4cc5ccc(Cl)cc5c(=O)[nH]4)C3)CC2)cn1 (single isomer, unassigned) [Compound 129b] |  | < 10 | 100 to 1000 |  |  | < 10 | 10 to 100 | < 10 |  | +++ (+++ indicate a value of at least 100) | +++ (+++ indicate a value of at least 100) |
| CNC(=O)c1ccc(N2CCC(N3CCC(c4cc5cccc(F)c5c(=O)[nH]4)C3)CC2)cn1 (single isomer, unassigned) [Compound 136b, 5-{4-[3-(8-fluoro-1-oxo-2H-isoquinolin-3-yl)pyrrolidin-1-yl]piperidin-1-yl}-N-methylpyridine-2-carboxamide] |  | < 10 | 100 to 1000 |  |  | < 10 | 10 to 100 | < 10 |  | +++ (+++ indicate a value of at least 100) | +++ (+++ indicate a value of at least 100) |
| CNC(=O)c1ccc(N2CCC(N3CCC(c4cc5c(Cl)cccc5c(=O)[nH]4)C3)CC2)cn1 (single isomer, unassigned) [Compound 137b] |  | < 10 | 100 to 1000 |  |  | < 10 | 10 to 100 | < 10 |  | + (+ indicates a value of 10 to less than 50) | +++ (+++ indicate a value of at least 100) |
| CCc1ccc(C2CCN(C3CCN(c4ccc(C(=O)NC)nc4F)CC3)C2)[nH]c1=O (single isomer, unassigned) [Compound 151a, 5-(4-(3-(5-ethyl-6-oxo-1,6-dihydropyridin-2-yl)pyrrolidin-1-yl)piperidin-1-yl)-6-fluoro-N-methylpicolinamide] |  | < 10 | > 10000 |  |  |  | 100 to 1000 | < 10 | < 10 | +++ (+++ indicate a value of at least 100) | +++ (+++ indicate a value of at least 100) |
| CNC(=O)c1ccc(N2CCC(N3CCC(c4cc5ccc(F)cc5c(=O)[nH]4)C3)CC2)cn1 (single isomer, unassigned) [Compound 154b, 5-(4-(3-(7-fluoro-1-oxo-1,2-dihydroisoquinolin-3-yl)pyrrolidin-1-yl)piperidin-1-yl)-N-methylpicolinamide] |  | < 10 | 100 to 1000 |  |  | < 10 | 10 to 100 | < 10 |  | + (+ indicates a value of 10 to less than 50) | +++ (+++ indicate a value of at least 100) |
| CNC(=O)c1ccc(N2CCC(N3CCC(c4cc5ccc(F)cc5c(=O)[nH]4)C3)CC2)c(F)n1 (single isomer, unassigned) [Compound 174a] |  | < 10 | 1000 to 10000 |  |  | < 10 | 100 to 1000 | < 10 |  | +++ (+++ indicate a value of at least 100) | +++ (+++ indicate a value of at least 100) |
| CNC(=O)c1ccc(N2CCC(N3CCC(c4cc5ccc(F)cc5c(=O)[nH]4)C3)CC2)c(F)n1 (single isomer, unassigned) [Compound 174b] |  | < 10 | 100 to 1000 |  |  | < 10 | 10 to 100 | < 10 |  | +++ (+++ indicate a value of at least 100) | +++ (+++ indicate a value of at least 100) |

Further lines, with some results ahead:

| Kd [1, 4] [nM] | Kd (PARP1) [nM] | Kd (PARP2) [nM] | Kd ([2]; probe displacement HTRF) [nM] | IC50 [3, 5] [nM] | Kd [1, 6] [nM] | Kd ([2]; PARP2 probe displacement HTRF) [nM] | IC50 [3, 7] [nM] | Kd ([1]; PARP1 HTRF, PARP1 probe displacement HTRF) [nM] | Compound | Selectivity ([1]; probe displacement HTRF) | Selectivity (PARP1) |
| --- | --- | --- | --- | --- | --- | --- | --- | --- | --- | --- | --- |
| < 10 | < 10 | 1000 to 10000 | 100 to 1000 | < 10 |  |  |  |  | CNC(=O)c1ccc(N2CCC(N3CCC(c4cc5ncc(Cl)cc5c(=O)[nH]4)C3)CC2)cn1 (racemic) [Compound 329rac] | +++ (+++ indicate a value of at least 100) | +++ (+++ indicate a value of at least 100) |
|  | < 10 | 100 to 1000 |  |  | < 10 | 10 to 100 | < 10 |  | CNC(=O)c1ccc(N2CCC(N3CCC(c4cc5c(F)ccc(F)c5c(=O)[nH]4)C3)CC2)cn1 (single isomer, unassigned) [Compound 180b] | ++ (++ indicates a value of 50 to less than 100) | +++ (+++ indicate a value of at least 100) |
|  | < 10 | 1000 to 10000 |  |  | < 10 | 100 to 1000 | < 10 |  | CNC(=O)c1ccc(N2CCC(N3CCC(c4cc5cccc(F)c5c(=O)[nH]4)C3)CC2)c(Cl)n1 (single isomer, unassigned) [Compound 183b] | +++ (+++ indicate a value of at least 100) | +++ (+++ indicate a value of at least 100) |
|  | < 10 | 100 to 1000 |  |  | < 10 | 100 to 1000 | < 10 |  | CNC(=O)c1ccc(N2CCC(N3CCC(c4cc5cccc(F)c5c(=O)[nH]4)C3)CC2)c(F)n1 (single isomer, unassigned) [Compound 184b, 6-fluoro-5-[4-[3-(8-fluoro-1-oxo-2H-isoquinolin-3-yl)pyrrolidin-1-yl]piperidin-1-yl]-N-methylpyridine-2-carboxamide] | +++ (+++ indicate a value of at least 100) | +++ (+++ indicate a value of at least 100) |
|  | < 10 | 100 to 1000 |  |  | < 10 | 100 to 1000 | < 10 |  | CNC(=O)c1ccc(N2CCC(N3CCC(c4cc5ccc(F)cc5c(=O)[nH]4)C3)CC2)c(C)n1 (single isomer, unassigned) [Compound 196a] | +++ (+++ indicate a value of at least 100) | +++ (+++ indicate a value of at least 100) |
|  | < 10 | 100 to 1000 |  |  | < 10 | 100 to 1000 | < 10 |  | CNC(=O)c1ccc(N2CCC(N3CCC(c4cc5ccc(F)cc5c(=O)[nH]4)C3)CC2)nn1 (single isomer, unassigned) [Compound 197a] | +++ (+++ indicate a value of at least 100) | +++ (+++ indicate a value of at least 100) |
| < 10 | < 10 | 100 to 1000 | 100 to 1000 | < 10 |  |  |  |  | CNC(=O)c1ccc(N2CCC(N3CCC(c4cc5ccc(F)cc5c(=O)[nH]4)C3)CC2)c(Cl)n1 (single isomer, unassigned) [Compound 223b] | +++ (+++ indicate a value of at least 100) | +++ (+++ indicate a value of at least 100) |
| < 10 | < 10 | 1000 to 10000 | 1000 to 10000 | < 10 |  |  |  |  | CCc1ccc(C2CCN(C3CCN(c4ccc(C(=O)NC)nc4Cl)CC3)C2)[nH]c1=O (single isomer, unassigned) [Compound 239b] | +++ (+++ indicate a value of at least 100) | +++ (+++ indicate a value of at least 100) |
